Data on 4 compounds can be found in US20250026773A1, “MONO-P-TOLUENESULFONATE OF AXL KINASE INHIBITOR AND CRYSTAL FORM THEREOF” (NANJING CHIA TAI TIANQING PHARMACEUTICAL CO., LTD., priority 2021, published 2025).

Data set [1] can be described thus: Physicochemical stability study of crystal forms (XRPD and HPLC). An excerpt: Use XRPD and HPLC to detect the physical and chemical stability of the samples.
A short description of data set [2]: Pharmacokinetic study in ICR mice. The class given is in vivo. To be noted: male, mouse, po, 10 mg·kg^-1 by gavage, plasma. The protocol: Each compound was prepared into a 10 mg/mL stock solution with DMSO.
Mixed solvent preparation: Tween 80:PEG 400:Water=1:9:90 (v/v/v).
Accurately aspirated 450 μL of DMSO stock solution of the compounds at a concentration of 10 mg/mL to a glass vial, respectively, added an appropriate volume of DMSO and mixed solvent, the ratio of solvent in the final preparation is DMSO:mixed solvent (v/v)=10:90, vortexed (or sonicated), dispersed homogeneously, to obtain the concentration of 1 mg/mL of 4.5 mL of the administered test solution respectively.
Male 6-10 weeks old ICR mice (mouse source: Viton Lever Laboratory Animal Technology Co., Ltd.) were taken, 6 mice in each group, and the mice were fasted overnight and fed 4 hours after drug administration. On the day of the experiment, mice were given 10 mg·kg^−1 of compound test solution by gavage respectively. After the administration of the drug, mice were blood sampled at 0, 5 min, 15 min, 30 min, 1 h, 2 h, 4 h, 8 h, and 24 h from the orbital region of about […], which was placed in EDTA-K2 anticoagulant tubes. […] Plasma concentration was determined by LC-MS/MS method.
Pharmacokinetic parameters were calculated using the non-compartment model in Pharsight Phoenix 7.0, and the results are detailed in the following table.

Data set [3] in a line: Solubility in water and various pH media. The format is physicochemical. The settings on record: thermodynamic from solid.
Setting [4] is: After placement, 60° C., 5 days.
Where [5] appears, read: After placement, 60° C., 10 days.
[6] abbreviates: After placement, 60° C., 30 days.
Where [7] appears, read: After placement, 40° C./75% RH, 5 days.
Setting [8] is: After placement, 40° C./75% RH, 10 days.
Setting [9] is: After placement, 40° C./75% RH, 30 days.
[10] abbreviates: After placement, 75% RH, 5 days.
[11] abbreviates: After placement, 75% RH, 10 days.
The mark [12] stands for this setting: After placement, 75% RH, 30 days.
Where [13] appears, read: After placement, 92.5% RH, 5 days.
The mark [14] stands for this setting: After placement, 92.5% RH, 10 days.
Where [15] appears, read: After placement, Light, 10 days.

For `COCc1ccc(Nc2nc(Nc3ccc4c(c3)CC[C@@H](N3CCCC3)CC4)ncc2Cl)c(P(C)(C)=O)c1` [free base crystal form A, (S)-(2-((5-chloro-2-((7-(pyrrolidin-1-yl)-6,7,8,9-tetrahydro-5H-benzo[7]annulen-2-yl)amino)pyrimidin-4-yl)amino)-5-(methoxymethyl)phenyl)dimethylphosphine oxide], the Crystal form entry in data set [1] (setting [4]), in data set [1] (setting [5]) and in data set [1] (Before placement) was “Crystal form A” in each case. Moreover, the Maximum single impurity result in data set [1] (setting [4]) is listed as “impurity: 0.75 A %”; in data set [1] (setting [5]), “impurity: 1.21 A %”; in data set [1] (setting [6]) it was “impurity: 2.02 A %”; in data set [1] (Before placement), “impurity: 0.05 A %”. Further, the Purity entry in data set [1] (setting [4]) is listed as “Purity: 96.39 A %”; in data set [1] (setting [5]), “Purity: 94.49 A %”; in data set [1] (setting [6]), “Purity: 89.65 A %”; in data set [1] (Before placement), “Purity: 99.33 A %”.

What is called half-life is the time needed for the level to fall by half in the phase considered. A higher half-life goes with slow loss. Regarding `CN1CCN(Cc2ccc(Nc3ncc(Cl)c(Nc4ccccc4S(=O)(=O)N(C)C)n3)cc2)CC1` [Positive drug 2 (TP0903), reference compound], the half-life in data set [2] was 72 min.

For orientation: solubility means the dissolved amount per volume that the medium holds. Lower therefore signals a poorly soluble substance. With `COCc1ccc(Nc2nc(Nc3ccc4c(c3)CC[C@@H](N3CCCC3)CC4)ncc2Cl)c(P(C)(C)=O)c1.Cc1ccc(S(=O)(=O)O)cc1` [crystal form B, mono-p-toluenesulfonate monohydrate of (S)-(2-((5-chloro-2-((7-(pyrrolidin-1-yl)-6,7,8,9-tetrahydro-5H-benzo[7]annulen-2-yl)amino)pyrimidin-4-yl)amino)-5-(methoxymethyl)phenyl)dimethylphosphine oxide], the solubility was 1900 µg/mL in data set [3] (potassium dihydrogen phosphate/sodium hydroxide buffer, aqueous buffer, pH 6.0, potassium dihydrogen phosphate/sodium hydroxide); 2100 µg/mL in data set [3] (potassium dihydrogen phosphate/sodium hydroxide buffer, aqueous buffer, pH 6.8, potassium dihydrogen phosphate/sodium hydroxide); 2100 µg/mL in data set [3] (potassium dihydrogen phosphate/sodium hydroxide buffer, aqueous buffer, pH 7.4, potassium dihydrogen phosphate/sodium hydroxide); 87200 µg/mL in data set [3] (simulated gastric fluid, pH 1.0, dilute hydrochloric acid with water); 4700 µg/mL in data set [3] (simulated gastric fluid, pH 2.0, dilute hydrochloric acid with water); 2000 µg/mL in data set [3] (sodium acetate trihydrate/glacial acetic acid buffer, aqueous buffer, pH 4.5, sodium acetate trihydrate/glacial acetic acid). The solubility in data set [3] (water) came to 1400 µg/mL. Besides, the Crystal form result in data set [1] (setting [7]), in data set [1] (setting [8]), in data set [1] (setting [9]), in data set [1] (setting [4]), in data set [1] (setting [5]) and in data set [1] (setting [6]) was “Crystal form B” in each case. Moreover, the Crystal form result in data set [1] (setting [10]) was “Crystal form B”; in data set [1] (setting [11]), “Crystal form B”; in data set [1] (setting [12]), “Crystal form B”; in data set [1] (setting [13]) it was “Crystal form B”; in data set [1] (setting [14]) it was “Crystal form B”; in data set [1] (After placement, Light, 5 days), “Crystal form B”. Moreover, the Crystal form entry in data set [1] (setting [15]) and in data set [1] (Before placement) was “Crystal form B” in each case. For the same compound, the Maximum single impurity result in data set [1] (setting [7]), in data set [1] (setting [8]), in data set [1] (setting [9]), in data set [1] (setting [4]), in data set [1] (setting [5]) and in data set [1] (setting [6]) was “Maximum single impurity: 0.04 A %” each time. Besides, the Maximum single impurity entry in data set [1] (setting [10]) is on record as “Maximum single impurity: 0.04 A %”; in data set [1] (setting [11]), “Maximum single impurity: 0.04 A %”; in data set [1] (setting [12]), “Maximum single impurity: 0.04 A %”; in data set [1] (setting [13]) it was “Maximum single impurity: 0.04 A %”; in data set [1] (setting [14]), “Maximum single impurity: 0.04 A %”; in data set [1] (After placement, Light, 5 days), “Maximum single impurity: 0.05 A %”. The Maximum single impurity entry in data set [1] (setting [15]) is recorded as “Maximum single impurity: 0.10 A %”; in data set [1] (Before placement), “impurity: 0.04 A %”. Also, the Purity result is listed as “Purity: 99.81 A %” in data set [1] (setting [7]); “Purity: 99.82 A %” in data set [1] (setting [8]); “Purity: 99.81 A %” in data set [1] (setting [9]); “Purity: 99.81 A %” in data set [1] (setting [4]); “Purity: 99.82 A %” in data set [1] (setting [5]); “Purity: 99.80 A %” in data set [1] (setting [6]). The Purity entry is recorded as “Purity: 99.81 A %” in data set [1] (setting [10]); “Purity: 99.82 A %” in data set [1] (setting [11]); “Purity: 99.80 A %” in data set [1] (setting [12]); “Purity: 99.81 A %” in data set [1] (setting [13]); “Purity: 99.82 A %” in data set [1] (setting [14]); “Purity: 99.67 A %” in data set [1] (After placement, Light, 5 days). The Purity result in data set [1] (setting [15]) is recorded as “Purity: 99.60 A %”; in data set [1] (Before placement), “Purity: 99.81 A %”.

In data set [2], `COCc1ccc(Nc2nc(Nc3ccc4c(c3)CC[C@@H](N3CCCC3)CC4)ncc2Cl)c(P(C)(C)=O)c1` [Example 1, (S)-(2-((5-chloro-2-((7-(pyrrolidin-1-yl)-6,7,8,9-tetrahydro-5H-benzo[7]annulen-2-yl)amino)pyrimidin-4-yl)amino)-5-(methoxymethyl)phenyl)dimethylphosphine oxide] gave a half-life of 81 min.
